Measurements published in patent US12201632B2, “Levoketoconazole for treatment of congenital adrenal hyperplasia and primary aldosteronism” (Strongbridge Dublin Limited, priority 2018, dated 2025).
Where two headings read alike, the source gives them in different places.

What was measured:
[1] = test system: cortisol-producing adrenal adenoma cultures; experiment: Cortisol production in primary cortisol-producing adrenal adenoma cultures; assay type: cell-based, human; conditions: Homo sapiens, 72 h, 3 days, read-out: IC50 inhibition of cortisol production
Procedure: To obtain primary cultures, adrenal specimens (adrenocortical adenomas, adrenal hyperplasias and adrenocortical carcinomas) were collected after adrenalectomy at the department of Surgery, Erasmus University Medical Center, Rotterdam, the Netherlands, between April 2016 and May 2018. The study was conducted under guidelines that have been approved by the Medical Ethics Committee of the Erasmus Medical Center and informed consent was obtained from all patients. Immediately after surgery, specimens were minced into small pieces of 2-3 mm^3, washed in culture medium and centrifuged for 5 minutes at 600 g. The tissue was stored overnight in culture medium at 4° C., where after the tissue was centrifuged again and the supernatant was removed. Fragments were dissociated using 10-25 ml collagenase type 1 (2 mg/ml: Sigma-Aldrich), followed by incubation at 37° C. for up to two hours. Ficoll (GE healthcare) density gradient separation was used once or twice as required in order to separate contaminating red blood cells from the tumor cells. Cell viability and cell amount were counted by trypan blue exclusion. Dissociated cells were plated at a density of 10^5 cells per well. ACTH-secreting corticotroph pituitary adenoma tissue from patients with Cushing's disease (n=2) was available after transsphenoidal surgery. Single-cell suspensions of the pituitary adenoma tissues were prepared as previously described in detail.
Owing to a limited number of cells obtained from the specimens, not all experiments were carried out in every primary culture.
(§1) Cortisol concentrations were measured in the supernatant using a chemiluminescence immunoassay system (Immulite 2000XPi; Siemens DPC Inc., Los Angeles, Calif., USA). In addition, we carried out multi-steroid analysis by liquid chromatography/mass spectrometry (LC/MS-MS) to accurately quantify androstenedione, corticosterone, cortisol, 11-deoxycortisol, DHEA, DHEAS, progesterone, 17-hydroxyprogesterone, and testosterone. Concentrations that were tested on the LC/MS-MS were closest to 50% inhibition or maximal inhibition of cortisol as determined by the immunoassay. Steroids were quantified with respect to a calibration series, with internal standards. Steroids were quantified on a Xevo TQS LC-MS/MS (Waters Chromatography).
(§2) Statistical analysis was performed using Graphpad Prism 6.0 (Graphpad Software, San Diego, CA). Non-linear regression curve fitting program was used to calculate the half maximal inhibitory concentrations (IC50) on cortisol production. Effects of both compounds on the steroid profile were measured as absolute change compared to control and compared using the Student's t-test. When assessing differences between effects of both compounds, the percentage change was evaluated and compared in order to correct for differences in the vehicle treated control cells. Values of P<0.05 were considered statistically significant and data are presented as mean SEM.

HAC15 cells = experiment: Steroid profile by LC/MS-MS in HAC15 cells; assay type: cell-based, Human; conditions: 0.5 μM
Procedure: Human adrenocortical carcinoma HAC15 and mouse corticotroph AtT20 cells were used, purchased as a kind gift by Dr. W. Rainey, and obtained from Dr. J. Tooze (European Organization for Molecular Biology), respectively. Both cell lines were cultured in 75 cm^2 flasks at 37° C. in a humidified incubator (Greiner Bio-One, Alphen a/d Rijn, the Netherlands) at 5% CO2. Dulbecco's Modified Eagle Medium F12 containing 5% fetal calf serum was used for HAC15, whereas AtT20 cells were cultured in Dulbecco's minimal essential medium (DMEM) supplemented with 10% fetal calf serum. Both mediums were supplemented with L-glutamine (2 mmol/L) and penicillin (10^5 U/L). Short tandem repeat (str) profiling using a Powerplex Kit (Promega, Leiden, the Netherlands) of HAC15 and AtT20 gave results consistent with the ATCC database, confirming the identity of both cell lines. Medium and supplements were obtained from Invitrogen, Breda, the Netherlands. Once a week, cells were harvested with trypsin (0.05%)-EDTA (0.53 mM) and resuspended in culture medium. Levoketoconazole (COR-003) and racemic ketoconazole (both from Cortendo AB) were dissolved in absolute ethanol (EtOH), according to manufacturer's instructions, and stored at −20° C. at a stock concentration of […]. At the start of each experiment, both drugs were freshly prepared and diluted in EtOH in the correct concentrations. Synacten (synthetic ACTH, Novartis Pharma A.G.) stock concentration was stored at 4° C. and dissolved in culture medium at the day of use. The final concentrations of ACTH were chosen based on a dose-response curve in HAC15 cells and previously reported studies in the literature. For HAC15, 200,000 and 100,000 cells were plated in 0.5 ml medium in 24 well plates for experiments of 1 and 3 days, respectively. For AtT20, cell amounts were 100,000 and 30,000. One day after seeding the HAC15 cells, the medium was refreshed and cells were treated 1 or 3 days in quadruplicate with levoketoconazole or racemic ketoconazole (0.05-5 μM), with or without 10 nM ACTH. To study effects of both compounds on pituitary AtT20 cells, concentrations of 0.1 to 10 μM of both drugs were used. Controls were vehicle treated. […] Media were collected after 1 or 3 days of incubation and stored at −20° C. until analysis. All cell culture experiments were carried out at least twice.
as §1, §2

IC50 ([1]; CPA no. 2, basal condition): 0.266 µM
IC50 ([1]; CPA no. 3, basal condition): 0.138 µM
SMILES: CC(=O)N1CCN(c2ccc(OCC3COC(Cn4ccnc4)(c4ccc(Cl)cc4Cl)O3)cc2)CC1 (racemic) [racemic ketoconazole, Ketoconazole]
total sum of decrease of steroids (HAC15 cells; HAC15, ACTH): −1,591 nmol/L
11-DOC absolute change vs ACTH stimulation with vehicle (HAC15 cells; HAC15, ACTH, 3 days): -664.5 nmol/L
11-DOC percentage change vs ACTH stimulation with vehicle (HAC15 cells; HAC15, ACTH, 3 days): (−22%****)
17-OHP absolute change vs ACTH stimulation with vehicle (HAC15 cells; HAC15, ACTH, 3 days): -14.13 nmol/L
17-OHP percentage change vs ACTH stimulation with vehicle (HAC15 cells; HAC15, ACTH, 3 days): (−29%***)
Androstenedione absolute change vs ACTH stimulation with vehicle (HAC15 cells; HAC15, ACTH, 3 days): -661.4 nmol/L
Androstenedione percentage change vs ACTH stimulation with vehicle (HAC15 cells; HAC15, ACTH, 3 days): (−40%*)
Corticosterone absolute change vs ACTH stimulation with vehicle (HAC15 cells; HAC15, ACTH, 3 days): -0.0125 nmol/L
Corticosterone percentage change vs ACTH stimulation with vehicle (HAC15 cells; HAC15, ACTH, 3 days): (−1.5%****)
Cortisol absolute change vs ACTH stimulation with vehicle (HAC15 cells; HAC15, ACTH, 3 days): -15.15 nmol/L
Cortisol percentage change vs ACTH stimulation with vehicle (HAC15 cells; HAC15, ACTH, 3 days): (−45%****)
DHEA absolute change vs ACTH stimulation with vehicle (HAC15 cells; HAC15, ACTH, 3 days): -17.04 nmol/L
DHEA percentage change vs ACTH stimulation with vehicle (HAC15 cells; HAC15, ACTH, 3 days): (−41%***)
DHEAS absolute change vs ACTH stimulation with vehicle (HAC15 cells; HAC15, ACTH, 3 days): -197.4 nmol/L
DHEAS percentage change vs ACTH stimulation with vehicle (HAC15 cells; HAC15, ACTH, 3 days): (−35%)
Prog absolute change vs ACTH stimulation with vehicle (HAC15 cells; HAC15, ACTH, 3 days): -0.9625 nmol/L
Prog percentage change vs ACTH stimulation with vehicle (HAC15 cells; HAC15, ACTH, 3 days): (−30%****)
Testosterone absolute change vs ACTH stimulation with vehicle (HAC15 cells; HAC15, ACTH, 3 days): -20.29 nmol/L
Testosterone percentage change vs ACTH stimulation with vehicle (HAC15 cells; HAC15, ACTH, 3 days): (−50%****)
11-DOC absolute change vs control (HAC15 cells; HAC15, Basal, 3 days): -521.2 nmol/L
11-DOC percentage change vs control (HAC15 cells; HAC15, Basal, 3 days): (−23%****)
17-OHP absolute change vs control (HAC15 cells; HAC15, Basal, 3 days): -16.50 nmol/L
17-OHP percentage change vs control (HAC15 cells; HAC15, Basal, 3 days): (−37%****)
Androstenedione absolute change vs control (HAC15 cells; HAC15, Basal, 3 days): -809.0 nmol/L
Androstenedione percentage change vs control (HAC15 cells; HAC15, Basal, 3 days): (−47%**)
Corticosterone absolute change vs control (HAC15 cells; HAC15, Basal, 3 days): +0.1750 nmol/l
Corticosterone percentage change vs control (HAC15 cells; HAC15, Basal, 3 days): (+19%****)
Cortisol absolute change vs control (HAC15 cells; HAC15, Basal, 3 days): -10.93 nmol/L
Cortisol percentage change vs control (HAC15 cells; HAC15, Basal, 3 days): (−47%****)
DHEA absolute change vs control (HAC15 cells; HAC15, Basal, 3 days): -39.50 nmol/L
DHEA percentage change vs control (HAC15 cells; HAC15, Basal, 3 days): (−56%**)
DHEAS absolute change vs control (HAC15 cells; HAC15, Basal, 3 days): -496.4 nmol/L
DHEAS percentage change vs control (HAC15 cells; HAC15, Basal, 3 days): (−44%*)
Prog absolute change vs control (HAC15 cells; HAC15, Basal, 3 days): -0.3125 nmol/L
Prog percentage change vs control (HAC15 cells; HAC15, Basal, 3 days): (−19%****)
Testosterone absolute change vs control (HAC15 cells; HAC15, Basal, 3 days): -25.78 nmol/L
Testosterone percentage change vs control (HAC15 cells; HAC15, Basal, 3 days): (−58%***)
total sum of decrease of steroids (HAC15 cells; HAC15, basal): −1,919 nmol/L
